PubChem BioAssay AID2060896 (Molecular Pharmacology Branch, DTP, NCI, 2025)
pIC50: −log10 of the molar value. Blank lines part the entries; values can stand above or below the compound they belong to.

Tested on: 941728-121-R-J1-PDC complex spheroid viability
Assay: Anticancer human tumor 941728-121-R-J1-PDC patient-derived lung adenocarcinoma cell line growth inhibition [RAS]
Conditions: for pIC50: curve of first compound; for viability, T/C: stronger effect = lower value
Outline: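 Agents were tested in combination matrices in half-log decrements from a top concentration at or near clinical Cmax (10 microM if undetermined). Targets were multi-cell spheroids of tumour lines plus HUVEC and MSC stromal cells.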

[1] = second compound 0.000949 µM, first compound 0.0316 µM
[2] = second compound 0.000949 µM, first compound 0.1 µM
[3] = second compound 0.003 µM, first compound 0.0316 µM
[4] = second compound 0.003 µM, first compound 0.1 µM
[5] = second compound 0.00949 µM, first compound 0.0316 µM
[6] = second compound 0.00949 µM, first compound 0.1 µM
[7] = second compound 0.03 µM, first compound 0.0316 µM
[8] = second compound 0.03 µM, first compound 0.1 µM
[9] = second compound 0.0949 µM, first compound 0.0316 µM
[10] = second compound 0.0949 µM, first compound 0.1 µM
[11] = second compound 0.3 µM, first compound 0.0316 µM
[12] = second compound 0.3 µM, first compound 0.1 µM
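Note: spheroids exposed to compounds for 7 days before readout.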
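Throughout, for viability, T/C: 100% = DMSO vehicle control viability.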

pIC50 (second compound 0.000949 µM): > 7.50
pIC50 (second compound 0.003 µM): > 7.50
pIC50 (second compound 0.00949 µM): > 7.50
pIC50 (second compound 0.03 µM): > 7.50
pIC50 (second compound 0.0949 µM): > 7.50
pIC50 (second compound 0.3 µM): > 7.50
SMILES: Cc1nc(N2CCC3(CC2)COC(C)C3N)c(CO)nc1Sc1ccnc(N)c1Cl (stereo unspecified) + CCn1c(-c2cccnc2C(C)OC)c2c3cc(ccc31)N1CCOC(CC(NC(=O)C(C(C)C)N(C)C(=O)C3(F)CCN(C(=O)C#CC(C)(C)N(C)C)CC3)C(=O)N3CCCC(N3)C(=O)OCC(C)(C)C2)C1
viability, T/C [1]: 21.6%
viability, T/C [2]: 20.3%
viability, T/C (second compound 0.000949 µM, first compound 0.316 µM): 13.3%
viability, T/C (second compound 0.000949 µM, first compound 1 µM): 18.1%
viability, T/C (second compound 0.000949 µM, first compound 3.16 µM): 19.1%
viability, T/C (second compound 0.000949 µM, first compound 10 µM): 14.4%
viability, T/C [3]: 21.7%
viability, T/C [4]: 20.4%
viability, T/C (second compound 0.003 µM, first compound 0.316 µM): 14.2%
viability, T/C (second compound 0.003 µM, first compound 1 µM): 17.5%
viability, T/C (second compound 0.003 µM, first compound 3.16 µM): 18.1%
viability, T/C (second compound 0.003 µM, first compound 10 µM): 13.7%
viability, T/C [5]: 20.1%
viability, T/C [6]: 16.8%
viability, T/C (second compound 0.00949 µM, first compound 0.316 µM): 16.8%
viability, T/C (second compound 0.00949 µM, first compound 1 µM): 18.4%
viability, T/C (second compound 0.00949 µM, first compound 3.16 µM): 15.7%
viability, T/C (second compound 0.00949 µM, first compound 10 µM): 15.6%
viability, T/C [7]: 19.7%
viability, T/C [8]: 19%
viability, T/C (second compound 0.03 µM, first compound 0.316 µM): 17.5%
viability, T/C (second compound 0.03 µM, first compound 1 µM): 15.7%
viability, T/C (second compound 0.03 µM, first compound 3.16 µM): 13.1%
viability, T/C (second compound 0.03 µM, first compound 10 µM): 17.6%
viability, T/C [9]: 21.4%
viability, T/C [10]: 20.7%
viability, T/C (second compound 0.0949 µM, first compound 0.316 µM): 19.9%
viability, T/C (second compound 0.0949 µM, first compound 1 µM): 17.3%
viability, T/C (second compound 0.0949 µM, first compound 3.16 µM): 15.2%
viability, T/C (second compound 0.0949 µM, first compound 10 µM): 19.6%
viability, T/C [11]: 22.1%
viability, T/C [12]: 20.9%
viability, T/C (second compound 0.3 µM, first compound 0.316 µM): 20.6%
viability, T/C (second compound 0.3 µM, first compound 1 µM): 18.3%
viability, T/C (second compound 0.3 µM, first compound 3.16 µM): 18.8%
viability, T/C (second compound 0.3 µM, first compound 10 µM): 23.2%

pIC50 (second compound 0.0316 µM): 7.58
pIC50 (second compound 0.1 µM): 7.91
pIC50 (second compound 0.316 µM): > 9.02
pIC50 (second compound 1 µM): > 9.02
pIC50 (second compound 3.16 µM): > 9.02
pIC50 (second compound 10 µM): > 9.02
SMILES: CCc1c2c(nc3ccc(O)cc13)-c1cc3c(c(=O)n1C2)COC(=O)[C@]3(O)CC + C#Cc1c(F)ccc2cc(O)cc(-c3ncc4c(N5CC6CCC(C5)N6)nc(OCC56CCCN5CC(F)C6)nc4c3F)c12
viability, T/C (second compound 0.0316 µM, first compound 0.000949 µM): 77.8%
viability, T/C (second compound 0.0316 µM, first compound 0.003 µM): 61.1%
viability, T/C (second compound 0.0316 µM, first compound 0.00949 µM): 54.1%
viability, T/C (second compound 0.0316 µM, first compound 0.03 µM): 49.8%
viability, T/C (second compound 0.0316 µM, first compound 0.0949 µM): 51.6%
viability, T/C (second compound 0.0316 µM, first compound 0.3 µM): 40.5%
viability, T/C (second compound 0.1 µM, first compound 0.000949 µM): 69.4%
viability, T/C (second compound 0.1 µM, first compound 0.003 µM): 58.8%
viability, T/C (second compound 0.1 µM, first compound 0.00949 µM): 45%
viability, T/C (second compound 0.1 µM, first compound 0.03 µM): 53.6%
viability, T/C (second compound 0.1 µM, first compound 0.0949 µM): 48.4%
viability, T/C (second compound 0.1 µM, first compound 0.3 µM): 39.9%
viability, T/C (second compound 0.316 µM, first compound 0.000949 µM): 52.9%
viability, T/C (second compound 0.316 µM, first compound 0.003 µM): 42.4%
viability, T/C (second compound 0.316 µM, first compound 0.00949 µM): 42.5%
viability, T/C (second compound 0.316 µM, first compound 0.03 µM): 42.6%
viability, T/C (second compound 0.316 µM, first compound 0.0949 µM): 44.7%
viability, T/C (second compound 0.316 µM, first compound 0.3 µM): 34.6%
viability, T/C (second compound 1 µM, first compound 0.000949 µM): 34.8%
viability, T/C (second compound 1 µM, first compound 0.003 µM): 37.9%
viability, T/C (second compound 1 µM, first compound 0.00949 µM): 30.6%
viability, T/C (second compound 1 µM, first compound 0.03 µM): 31.8%
viability, T/C (second compound 1 µM, first compound 0.0949 µM): 32.4%
viability, T/C (second compound 1 µM, first compound 0.3 µM): 29%
viability, T/C (second compound 3.16 µM, first compound 0.000949 µM): 25.6%
viability, T/C (second compound 3.16 µM, first compound 0.003 µM): 26.1%
viability, T/C (second compound 3.16 µM, first compound 0.00949 µM): 26.7%
viability, T/C (second compound 3.16 µM, first compound 0.03 µM): 23.5%
viability, T/C (second compound 3.16 µM, first compound 0.0949 µM): 21.4%
viability, T/C (second compound 3.16 µM, first compound 0.3 µM): 19%
viability, T/C (second compound 10 µM, first compound 0.000949 µM): 21.9%
viability, T/C (second compound 10 µM, first compound 0.003 µM): 18.5%
viability, T/C (second compound 10 µM, first compound 0.00949 µM): 18.6%
viability, T/C (second compound 10 µM, first compound 0.03 µM): 14.8%
viability, T/C (second compound 10 µM, first compound 0.0949 µM): 13.3%
viability, T/C (second compound 10 µM, first compound 0.3 µM): 8.73%

pIC50 (second compound 0.000949 µM): > 9.50
pIC50 (second compound 0.003 µM): > 9.50
pIC50 (second compound 0.00949 µM): > 9.50
pIC50 (second compound 0.03 µM): > 9.50
pIC50 (second compound 0.0949 µM): > 9.50
pIC50 (second compound 0.3 µM): > 9.50
SMILES: CC(C)n1nc(-c2ccc3oc(N)nc3c2)c2c(N)ncnc21 + CCn1c(-c2cc(N3CCN(C)CC3)cnc2C(C)OC)c2c3cc(ccc31)-c1csc(n1)CC(NC(=O)C1CC1C)C(=O)N1CCCC(N1)C(=O)OCC(C)(C)C2
viability, T/C (second compound 0.000949 µM, first compound 0.000316 µM): 25.5%
viability, T/C (second compound 0.000949 µM, first compound 0.001 µM): 27.6%
viability, T/C (second compound 0.000949 µM, first compound 0.00316 µM): 18.6%
viability, T/C (second compound 0.000949 µM, first compound 0.01 µM): 20.2%
viability, T/C [1]: 16.9%
viability, T/C [2]: 11.1%
viability, T/C (second compound 0.003 µM, first compound 0.000316 µM): 24.6%
viability, T/C (second compound 0.003 µM, first compound 0.001 µM): 20.8%
viability, T/C (second compound 0.003 µM, first compound 0.00316 µM): 16%
viability, T/C (second compound 0.003 µM, first compound 0.01 µM): 14.4%
viability, T/C [3]: 10.9%
viability, T/C [4]: 8.48%
viability, T/C (second compound 0.00949 µM, first compound 0.000316 µM): 17.6%
viability, T/C (second compound 0.00949 µM, first compound 0.001 µM): 16%
viability, T/C (second compound 0.00949 µM, first compound 0.00316 µM): 16.3%
viability, T/C (second compound 0.00949 µM, first compound 0.01 µM): 11.6%
viability, T/C [5]: 8.78%
viability, T/C [6]: 5.45%
viability, T/C (second compound 0.03 µM, first compound 0.000316 µM): 13.4%
viability, T/C (second compound 0.03 µM, first compound 0.001 µM): 14.6%
viability, T/C (second compound 0.03 µM, first compound 0.00316 µM): 13.4%
viability, T/C (second compound 0.03 µM, first compound 0.01 µM): 10.7%
viability, T/C [7]: 6.44%
viability, T/C [8]: 6.86%
viability, T/C (second compound 0.0949 µM, first compound 0.000316 µM): 12.7%
viability, T/C (second compound 0.0949 µM, first compound 0.001 µM): 14.2%
viability, T/C (second compound 0.0949 µM, first compound 0.00316 µM): 12.8%
viability, T/C (second compound 0.0949 µM, first compound 0.01 µM): 11.6%
viability, T/C [9]: 6.3%
viability, T/C [10]: 6.4%
viability, T/C (second compound 0.3 µM, first compound 0.000316 µM): 13.4%
viability, T/C (second compound 0.3 µM, first compound 0.001 µM): 13.9%
viability, T/C (second compound 0.3 µM, first compound 0.00316 µM): 12.9%
viability, T/C (second compound 0.3 µM, first compound 0.01 µM): 11.2%
viability, T/C [11]: 7.62%
viability, T/C [12]: 7.03%
